Here are results for 27 compounds from patent publication US20250346574A1, “PYRIDINYL SUBSTITUTED OXOISOINDOLINE COMPOUNDS FOR THE TREATMENT OF CANCER” (Bristol-Myers Squibb Company, priority 2021, published 2025).

Structures are written as SMILES.

As a reminder, the DC50 is the midpoint of the concentration-degradation curve.

Chain of Helios (Q9UKS7 whole entry): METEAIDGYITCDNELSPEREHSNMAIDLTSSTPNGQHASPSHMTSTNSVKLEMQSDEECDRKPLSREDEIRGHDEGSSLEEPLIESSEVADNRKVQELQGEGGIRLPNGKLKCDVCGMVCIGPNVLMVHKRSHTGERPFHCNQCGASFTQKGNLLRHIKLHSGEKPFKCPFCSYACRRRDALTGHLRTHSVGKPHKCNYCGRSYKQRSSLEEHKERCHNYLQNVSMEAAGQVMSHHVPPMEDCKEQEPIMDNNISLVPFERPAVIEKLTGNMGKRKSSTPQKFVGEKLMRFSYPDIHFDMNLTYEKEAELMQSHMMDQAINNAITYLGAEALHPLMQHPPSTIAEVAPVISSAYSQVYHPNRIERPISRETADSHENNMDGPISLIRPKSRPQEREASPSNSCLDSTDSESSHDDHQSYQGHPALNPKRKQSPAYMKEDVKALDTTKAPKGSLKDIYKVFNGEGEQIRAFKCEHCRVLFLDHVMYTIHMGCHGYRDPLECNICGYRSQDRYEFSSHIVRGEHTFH
Chain of Helios (Q96SW2 whole entry): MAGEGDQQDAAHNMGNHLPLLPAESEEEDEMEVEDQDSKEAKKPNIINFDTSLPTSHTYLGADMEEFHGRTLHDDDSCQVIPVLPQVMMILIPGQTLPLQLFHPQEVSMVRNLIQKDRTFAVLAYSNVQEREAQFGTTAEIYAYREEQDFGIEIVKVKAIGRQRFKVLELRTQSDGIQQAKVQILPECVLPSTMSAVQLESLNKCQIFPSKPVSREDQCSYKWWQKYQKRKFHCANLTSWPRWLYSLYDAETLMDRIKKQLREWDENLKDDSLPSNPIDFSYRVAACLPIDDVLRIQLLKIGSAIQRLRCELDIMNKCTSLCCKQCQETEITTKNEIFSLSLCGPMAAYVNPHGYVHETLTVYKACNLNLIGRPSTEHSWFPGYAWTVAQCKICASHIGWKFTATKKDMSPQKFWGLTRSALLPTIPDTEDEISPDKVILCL
Chain of Helios (Q16531 whole entry partner): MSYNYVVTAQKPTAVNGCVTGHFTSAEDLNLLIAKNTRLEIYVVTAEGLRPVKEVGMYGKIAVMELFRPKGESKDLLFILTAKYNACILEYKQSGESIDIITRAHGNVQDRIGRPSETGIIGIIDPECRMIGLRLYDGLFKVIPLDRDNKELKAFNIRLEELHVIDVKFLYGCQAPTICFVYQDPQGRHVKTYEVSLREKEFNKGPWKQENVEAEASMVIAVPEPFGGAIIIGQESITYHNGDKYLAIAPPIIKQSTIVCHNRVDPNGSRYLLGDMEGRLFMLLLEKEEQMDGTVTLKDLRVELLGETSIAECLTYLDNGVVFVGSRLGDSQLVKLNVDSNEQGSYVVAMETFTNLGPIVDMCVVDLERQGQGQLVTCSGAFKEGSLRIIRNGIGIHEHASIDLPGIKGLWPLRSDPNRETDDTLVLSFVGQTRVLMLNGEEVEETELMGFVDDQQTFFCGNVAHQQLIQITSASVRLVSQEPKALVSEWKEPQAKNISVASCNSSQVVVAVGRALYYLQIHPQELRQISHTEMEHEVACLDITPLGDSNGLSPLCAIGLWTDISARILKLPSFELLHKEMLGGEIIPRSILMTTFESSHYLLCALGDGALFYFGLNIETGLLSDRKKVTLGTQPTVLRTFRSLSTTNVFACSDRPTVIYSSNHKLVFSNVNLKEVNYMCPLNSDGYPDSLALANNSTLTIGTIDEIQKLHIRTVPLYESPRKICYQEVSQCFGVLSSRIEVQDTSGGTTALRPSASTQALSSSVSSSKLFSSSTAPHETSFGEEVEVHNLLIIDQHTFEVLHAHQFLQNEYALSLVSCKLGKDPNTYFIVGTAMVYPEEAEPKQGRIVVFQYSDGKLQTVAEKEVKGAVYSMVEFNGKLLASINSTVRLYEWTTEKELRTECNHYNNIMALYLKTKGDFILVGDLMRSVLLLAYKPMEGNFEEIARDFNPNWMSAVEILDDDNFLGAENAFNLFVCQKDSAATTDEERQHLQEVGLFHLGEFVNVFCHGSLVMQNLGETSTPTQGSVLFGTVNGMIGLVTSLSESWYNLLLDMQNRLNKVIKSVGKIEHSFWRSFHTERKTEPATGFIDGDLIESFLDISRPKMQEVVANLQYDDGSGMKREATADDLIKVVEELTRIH

This experiment has as its target Helios (Homo sapiens, UniProt Q96SW2+Q9UKS7). Briefly: Helios Human T Regulatory Cells Degradation Assay. Particulars: cryopreserved human T regulatory cells, incubated 20 hours, Helios-APC antibody staining, flow cytometry; read-out: hTreg Helios DC50. On the set-up: fluorescently labelled antibodies against Helios in 1× Permeabilization buffer; endogenous in cells; host or cells: cryopreserved human T regulatory cells. Format: cell-based. The procedure: Cryopreserved human T regulatory cells were thawed in RPMI+10% FBS+20 ng/mL IL-2. After being spun at 1200 rpm for 5 mins, the cells were resuspended in RPMI+10% FBS+20 ng/mL and rested at 37° C. with 5% CO2 for 3 hours. […] Cell cultures were incubated for 20 hours at 37° C. and 5% CO2. In order to facilitate analysis, cell cultures were spun down at 1200 rpm for 5 minutes and the supernatant was discarded using an EL406 plate washer. After washing three times with 70 μL PBS, cell pellets were resuspended in 50 μL of near IR viability staining solution (Life Technologies, Cat #L34975) and incubated for 30 minutes on ice protected from light. Cells were washed three times with 70 μL PBS+0.5% BSA using an EL406 plate washer. […] Subsequently, 30 μL of 1× Permeabilization buffer was added prior to centrifuging the cells and discarding the supernatant. Stained cells were resuspended in 30 μL of flow cytometry staining buffer (PBS+0.5% BSA) and analyzed using an Intellicyt Ique Plus flow cytometer.
On the technique in general: In flow cytometry, cells or beads pass a laser one at a time.
For `COc1c(CN2CCC(C(C)(C)O)CC2)ccnc1-c1ccc2c(c1)CN(C1CCC(=O)NC1=O)C2=O` (stereo not drawn) [Example 172, 3-(5-(4-((4-(2-hydroxypropan-2-yl)piperidin-1-yl)methyl)-3-methoxypyridin-2-yl)-1-oxoisoindolin-2-yl)piperidine-2,6-dione], the DC50 was found to be 5.2 nM.

In the case of `COc1c(CN2CCC(C3CC3)C2)ccnc1-c1ccc2c(c1)CN(C1CCC(=O)NC1=O)C2=O` (stereo not drawn) [Example 173, 3-(5-(4-((3-cyclopropylpyrrolidin-1-yl)methyl)-3-methoxypyridin-2-yl)-1-oxoisoindolin-2-yl)piperidine-2,6-dione], the DC50 was found to be 0.4 nM.

As to `COc1cc(CN2CC3(CCC3)C2)cc(-c2ccc3c(c2)CN(C2CCC(=O)NC2=O)C3=O)n1` (stereo not drawn) [Example 174, 3-(5-(4-((2-azaspiro[3.3]heptan-2-yl)methyl)-6-methoxypyridin-2-yl)-1-oxoisoindolin-2-yl)piperidine-2,6-dione], the DC50 came out at 1.5 nM.

Take `COc1cc(CN2CCC(C3CC3)C2)cc(-c2ccc3c(c2)CN(C2CCC(=O)NC2=O)C3=O)n1` (stereo not drawn) [Example 175, 3-(5-(4-((3-cyclopropylpyrrolidin-1-yl)methyl)-6-methoxypyridin-2-yl)-1-oxoisoindolin-2-yl)piperidine-2,6-dione]: the DC50 was 0.2 nM.

Consider `O=C1CCC(N2Cc3cc(-c4cc(CN5CC6(CCC6)C5)c(C(F)(F)F)cn4)ccc3C2=O)C(=O)N1` (stereo not drawn) [Example 180, 3-(5-(4-((2-azaspiro[3.3]heptan-2-yl)methyl)-5-(trifluoromethyl)pyridin-2-yl)-1-oxoisoindolin-2-yl)piperidine-2,6-dione], for which the 50% degradation concentration (DC50) was no less than 10000 nM.

As to `COCC1CN(Cc2cc(-c3ccc4c(c3)CN(C3CCC(=O)NC3=O)C4=O)ncc2C(F)(F)F)C1` (stereo not drawn) [Example 181, 3-(5-(4-((3-(methoxymethyl)azetidin-1-yl)methyl)-5-(trifluoromethyl)pyridin-2-yl)-1-oxoisoindolin-2-yl)piperidine-2,6-dione], the DC50 is no less than 10000 nM.

As to `O=C1CCC(N2Cc3cc(-c4nccc(CN5CCC(OC(F)(F)F)C5)c4F)ccc3C2=O)C(=O)N1` (stereo not drawn) [Example 183, 3-(5-(3-fluoro-4-((3-(trifluoromethoxy)pyrrolidin-1-yl)methyl)pyridin-2-yl)-1-oxoisoindolin-2-yl)piperidine-2,6-dione], the DC50 was no less than 10000 nM.

Consider `O=C1CCC(N2Cc3cc(-c4nccc(CN5CC[C@H](F)C5)c4F)ccc3C2=O)C(=O)N1` (stereo partly drawn) [Example 184, 3-(5-(3-fluoro-4-(((S)-3-fluoropyrrolidin-1-yl)methyl)pyridin-2-yl)-1-oxoisoindolin-2-yl)piperidine-2,6-dione], for which the DC50 was determined as 3160 nM.

Turning to `O=C1CCC(N2Cc3cc(-c4nccc(CN5CCC(O)(C(F)(F)F)C5)c4F)ccc3C2=O)C(=O)N1` (stereo not drawn) [Example 185, 3-(5-(3-fluoro-4-((3-hydroxy-3-(trifluoromethyl)pyrrolidin-1-yl)methyl)pyridin-2-yl)-1-oxoisoindolin-2-yl)piperidine-2,6-dione], the DC50 is no less than 10000 nM.

For `O=C1CCC(N2Cc3cc(-c4nccc(CN5Cc6cccc(F)c6C5)c4F)ccc3C2=O)C(=O)N1` (stereo not drawn) [Example 186, 3-(5-(3-fluoro-4-((4-fluoroisoindolin-2-yl)methyl)pyridin-2-yl)-1-oxoisoindolin-2-yl)piperidine-2,6-dione], the DC50 was no less than 10000 nM.

Regarding `O=C1CCC(N2Cc3cc(-c4nccc(CN5Cc6ccc(Cl)cc6C5)c4F)ccc3C2=O)C(=O)N1` (stereo not drawn) [Example 187, 3-(5-(4-((5-chloroisoindolin-2-yl)methyl)-3-fluoropyridin-2-yl)-1-oxoisoindolin-2-yl)piperidine-2,6-dione], the DC50 was no less than 10000 nM.

In the case of `CC(C)(C)NC(=O)C1CCCN1Cc1ccnc(-c2ccc3c(c2)CN(C2CCC(=O)NC2=O)C3=O)c1` (stereo not drawn) [Example 188, N-(tert-butyl)-1-((2-(2-(2,6-dioxopiperidin-3-yl)-1-oxoisoindolin-5-yl)pyridin-4-yl)methyl)pyrrolidine-2-carboxamide], the DC50 was determined as 28.7 nM.

Take `COCC1N(Cc2ccnc(-c3ccc4c(c3)CN(C3CCC(=O)NC3=O)C4=O)c2)CC12CCC2` (stereo not drawn) [Example 189, 3-(5-(4-((1-(methoxymethyl)-2-azaspiro[3.3]heptan-2-yl)methyl)pyridin-2-yl)-1-oxoisoindolin-2-yl)piperidine-2,6-dione]: the DC50 came to 6.4 nM.

Regarding `O=C1CCC(N2Cc3cc(-c4cc(CN5CCC[C@H]5C(=O)NC5CCCCC5)ccn4)ccc3C2=O)C(=O)N1` (stereo partly drawn) [Example 190, (2S)—N-cyclohexyl-1-((2-(2-(2,6-dioxopiperidin-3-yl)-1-oxoisoindolin-5-yl)pyridin-4-yl)methyl)pyrrolidine-2-carboxamide], the half-maximal degradation concentration (DC50) was 49.7 nM.

For the compound `O=C1CCC(N2Cc3cc(-c4cc(CN5CC[C@@H]5COc5ccc(Cl)nc5)ccn4)ccc3C2=O)C(=O)N1` (stereo partly drawn) [Example 191, 3-(5-(4-(((R)-2-(((6-chloropyridin-3-yl)oxy)methyl)azetidin-1-yl)methyl)pyridin-2-yl)-1-oxoisoindolin-2-yl)piperidine-2,6-dione], the DC50 was determined as 53.6 nM.

On to `O=C1CCC(N2Cc3cc(-c4cc(CN5CCC5COc5ccc(F)cc5)ccn4)ccc3C2=O)C(=O)N1` (stereo not drawn) [Example 192, 3-(5-(4-((2-((4-fluorophenoxy)methyl)azetidin-1-yl)methyl)pyridin-2-yl)-1-oxoisoindolin-2-yl) piperidine-2,6-dione], for which the DC50 came to 7.7 nM.

`CC(C)(C)OC(=O)NC[C@@H]1CCCN1Cc1ccnc(-c2ccc3c(c2)CN(C2CCC(=O)NC2=O)C3=O)c1` (stereo partly drawn) [Example 195, tert-butyl (((2S)-1-((2-(2-(2,6-dioxopiperidin-3-yl)-1-oxoisoindolin-5-yl)pyridin-4-yl)methyl)pyrrolidin-2-yl)methyl)carbamate]: the DC50 turned out to be 23.5 nM.

On to `CC(C)OCC1CCN1Cc1ccnc(-c2ccc3c(c2)CN(C2CCC(=O)NC2=O)C3=O)c1` (stereo not drawn) [Example 196, 3-(5-(4-((2-(isopropoxymethyl)azetidin-1-yl)methyl)pyridin-2-yl)-1-oxoisoindolin-2-yl)piperidine-2,6-dione], for which the DC50 came to 2.6 nM.

Turning to `CC1(F)CCN(Cc2ccnc(-c3ccc4c(c3)CN(C3CCC(=O)NC3=O)C4=O)c2F)CC1` (stereo not drawn) [Example 198, 3-(5-(3-fluoro-4-((4-fluoro-4-methylpiperidin-1-yl)methyl)pyridin-2-yl)-1-oxoisoindolin-2-yl)piperidine-2,6-dione], the DC50 came out at 51.9 nM.

For the compound `CC(=O)N1CCCCN1Cc1ccnc(-c2ccc3c(c2)CN(C2CCC(=O)NC2=O)C3=O)c1F` (stereo not drawn) [Example 199, 3-(5-(4-((2-acetyltetrahydropyridazin-1(2H)-yl)methyl)-3-fluoropyridin-2-yl)-1-oxoisoindolin-2-yl)piperidine-2,6-dione], the DC50 is no less than 10000 nM.

Turning to `CC(C)(C)OC(=O)N1CC2CCCN(Cc3ccnc(-c4ccc5c(c4)CN(C4CCC(=O)NC4=O)C5=O)c3F)C2C1` (stereo not drawn) [Example 204, tert-butyl 1-((2-(2-(2,6-dioxopiperidin-3-yl)-1-oxoisoindolin-5-yl)-3-fluoropyridin-4-yl)methyl) octahydro-6H-pyrrolo[3,4-b]pyridine-6-carboxylate], the DC50 is no less than 10000 nM.

Take `O=C1CCC(N2Cc3cc(-c4nccc(CN5CCCC(F)C5)c4F)ccc3C2=O)C(=O)N1` (stereo not drawn) [Example 205, 3-(5-(3-fluoro-4-((3-fluoropiperidin-1-yl)methyl)pyridin-2-yl)-1-oxoisoindolin-2-yl)piperidine-2,6-dione]: the DC50 was no less than 10000 nM.

For `CC1(C)C2CN(Cc3ccnc(-c4ccc5c(c4)CN(C4CCC(=O)NC4=O)C5=O)c3F)CC21` (stereo not drawn) [Example 206, 3-(5-(4-((6,6-dimethyl-3-azabicyclo[3.1.0]hexan-3-yl)methyl)-3-fluoropyridin-2-yl)-1-oxoisoindolin-2-yl)piperidine-2,6-dione], the 50% degradation concentration (DC50) is 11.1 nM.

For `CC(C)(C)OC(=O)N1CCC2(CN(Cc3ccnc(-c4ccc5c(c4)CN(C4CCC(=O)NC4=O)C5=O)c3F)C2)C1` (stereo not drawn) [Example 207, tert-butyl 2-((2-(2-(2,6-dioxopiperidin-3-yl)-1-oxoisoindolin-5-yl)-3-fluoropyridin-4-yl)methyl)-2,6-diazaspiro[3.4]octane-6-carboxylate], the DC50 was no less than 10000 nM.

For `CC(C)(C)OC(=O)N1CCCC2(CN(Cc3ccnc(-c4ccc5c(c4)CN(C4CCC(=O)NC4=O)C5=O)c3F)C2)C1` (stereo not drawn) [Example 208, tert-butyl 2-((2-(2-(2,6-dioxopiperidin-3-yl)-1-oxoisoindolin-5-yl)-3-fluoropyridin-4-yl)methyl)-2,6-diazaspiro[3.5]nonane-6-carboxylate], the DC50 is no less than 10000 nM.

For `O=C1CCC(N2Cc3cc(-c4nccc(CN5CCC(O)(C(F)(F)F)CC5)c4F)ccc3C2=O)C(=O)N1` (stereo not drawn) [Example 209, 3-(5-(3-fluoro-4-((4-hydroxy-4-(trifluoromethyl)piperidin-1-yl)methyl)pyridin-2-yl)-1-oxoisoindolin-2-yl)piperidine-2,6-dione], the DC50 was no less than 10000 nM.

As to `CC(C)(C)OC(=O)N1CCCC12CCN(Cc1ccnc(-c3ccc4c(c3)CN(C3CCC(=O)NC3=O)C4=O)c1F)C2` (stereo not drawn) [Example 213, tert-butyl 7-((2-(2-(2,6-dioxopiperidin-3-yl)-1-oxoisoindolin-5-yl)-3-fluoropyridin-4-yl)methyl)-1,7-diazaspiro[4.4]nonane-1-carboxylate], the half-maximal degradation concentration (DC50) is no less than 10000 nM.
